In US20160206726A1, “IMMUNOTHERAPY” (priority 2013, published 2016):

Experiments:
[1] = tested on: SW620 cells (colorectal cell line); test: Plasma stability of cyclic peptide in colorectal cancer model (IFN-γ T cell recognition after plasma treatment); type: in vitro ADME, human; conditions: no target cells
Description: (§1) These cells were incubated with peptide-specific T cells overnight and IFN-γ assayed for T cell recognition of the processed peptide.

[2] = tested on: LCLs (tumour B cells); test: LCL pulsed with cyclic or linear peptide with or without protease inhibitor cocktail; IFN-γ assayed for T cell recognition; type: cell-based; conditions: 10 ug peptide
Description: LCLs (tumour B cells) were incubated with or without a protease inhibitor cocktail for 2 hrs at 37° C. […] (SEQ ID No: 278). The protease cleavage sequence “FR” is recognised by Cathepsin B and the T cell epitope […] is restricted to HLA-A*0201. […] These cells were incubated with peptide-specific T cells overnight and IFN-γ assayed for T cell recognition of the processed peptide.

[3] = tested on: healthy B cells; test: Healthy B cells pulsed with cyclic or linear peptide with or without protease inhibitor cocktail; IFN-γ assayed for T cell recognition; type: cell-based; conditions: 10 ug peptide
Description: LCLs (tumour B cells) or healthy B cells were incubated with or without a protease inhibitor cocktail for 2 hrs at 37° C. […] The amino acid sequence of the cyclic peptide was […] (SEQ ID No: 278). The protease cleavage sequence “FR” is recognised by Cathepsin B and the T cell epitope […] is restricted to HLA-A*0201. The cyclic peptide was obtained from JPT Peptide Technologies. These cells were incubated with peptide-specific T cells overnight and IFN-γ assayed for T cell recognition of the processed peptide.

[4] = tested on: LCLs (tumour B cells); test: Plasma stability of cyclic peptide in LCL model (IFN-γ T cell recognition after plasma treatment); type: in vitro ADME, human
Description: LCLs (tumour B cells) were incubated with or without a protease inhibitor cocktail (PIC) for 2 hrs at 37° C. […] These cells were incubated with peptide-specific T cells overnight and IFN-γ assayed for T cell recognition of the processed peptide.

[5] = tested on: LCL target cells; test: Comparison of the plasma stability of cyclic peptide and APEC in LCL model (IFN-γ T cell recognition after plasma treatment); type: in vitro ADME, human; conditions: no target cells
Description: as §1

[6] = tested on: SW620 cells (colorectal cell line); test: SW620 colorectal cell line pulsed with cyclic or linear peptide with or without protease inhibitor cocktail; IFN-γ assayed for T cell recognition; type: cell-based; conditions: 10 ug peptide
Description: SW620 cells (colorectal cell line) incubated with or without a protease inhibitor cocktail for 2 hrs at 37° C. […] These cells were incubated with peptide-specific T cells overnight and IFN-γ assayed for T cell recognition of the processed peptide.
As a control for this, T cells alone were treated with the cyclic peptide. T cells should not process the cyclic form of the peptide but would be able to present the linear form and therefore the level of IFN-γ produced in this control would account for the amount of linear peptide present in the vial of cyclic peptide.

[7] = protease inhibitor cocktail 2 hrs at 37° C

In the case of FRGGANLVPMVATVAA [cyclic peptide], the “response of T cells alone labelled with the peptide, without and with serum treatment” value (from here on “response … without and with serum treatment”) [1] was “very small response to the peptide which then disappears upon treatment of the peptide with serum”, the “response with the protease inhibitors compared with T cells cultured with the cyclic peptide alone” value [2] was “very similar to the level seen when T cells were cultured with the cyclic peptide alone” and the “decrease in the T cell recognition in the presence of the protease inhibitors” value [2, 7] was roughly 75%. For the same sequence, the “T cell recognition (IFN-γ) of pulsed target cells, with versus without protease inhibitors” value ([2]; protease inhibitor cocktail 2 hrs at 37° C, peptide-specific T cells overnight) was “much larger response to IFN-γ when cultured in the absence of the protease inhibitors”, the “amount of IFN-γ with healthy B cells compared with LCL” value [3] was “significantly decreased amount of IFN-γ compared to the LCL treated with the cyclic peptide” and the “T cell recognition (IFN-γ) of pulsed healthy B cells, with versus without protease inhibitors” value [3, 7] was “little difference in the response”. For the same sequence, the “effect of protease inhibitor cocktail on response to plasma-treated peptide” value ([4]; LCLs pre-incubated with PIC, peptide treated 4 hrs with human plasma) was “there is a decrease when target cells were pre-incubated with the protease inhibitor cocktail”, the “response … without and with serum treatment” value ([4]; T cells alone, no target cells) was “very small response to the peptide which then disappears upon treatment of the peptide with serum” and the “response … without and with serum treatment” value [5] was “very small response to the peptide which then disappears upon treatment of the peptide with serum”. The “response with the protease inhibitors compared with T cells cultured with the cyclic peptide alone” value [6] was “very similar to the level seen when T cells were cultured with the cyclic peptide alone”, the “T cell recognition (IFN-γ) of pulsed target cells, with versus without protease inhibitors” value [6, 7] was “much larger response to IFN-γ when cultured in the absence of the protease inhibitors” and the “decrease in the T cell recognition in the presence of the protease inhibitors” value [6, 7] was roughly 65%.
